# Experimental data: patent US20180305408A1, “COMPOUNDS FOR INDUCING TISSUE FORMATION AND USES THEREOF” (HISTIDE AG, priority 2015, published 2018)
# No end group written: not given here.
# System: Human epithelial cells
# Test: Wound healing scratch test, collective cell migration
# Assay type: cell-based
# Settings: after 18 hours of culture
# Procedure: Human epithelial cells were cultured with or without GFR-binding compounds as defined herein (SEQ ID NO: 28). A usual scratch test was applied (Nat Protoc 2: 329-333) on a monolayer of these epithelial cells in culture (FIG. 12a). An increase in the cell migration velocity for cells cultured with peptides was observed after 18 hours of culture. The cells migrated collectively and the communication between cells was maintained (FIG. 12b). In fact, the injury has been closed rapidly for the cells cultured with GFR-binding compounds as defined herein.
substance,measurement,value
"SEQ ID NO: 28: GFR-binding compound tested for wound healing; sequence not in this part (RPTQVQLRPVQVRKIEYVRKKPKLKKATV; also: cyclic, ring type not given here)",cell migration velocity,increase
